Experiments:
Assay type in all cases: in vivo
Set-up in all cases: key: 0 indicates no effect; 5 indicates complete kill
Allium fistulosum = experiment: Foliage treatment (Example 8); settings: Plant No. 27 Allium fistulosum
Experimental: (§1) Aqueous solutions of Phosalacine (Na salt) at different concentrations were applied at a rate of 1500 liters per hectare to naturally occurring plants or plants which were cultured on plates as shown in the following Table at certain stages of growth. […]

Arctium lappa = experiment: Foliage treatment (Example 8); settings: Plant No. 30 Arctium lappa, 14 days
Experimental: as §1

Artemisia princeps = experiment: Foliage treatment (Example 8); settings: Plant No. 1 Artemisia princeps
Experimental: as §1

Brassica oleracea = experiment: Foliage treatment (Example 8); settings: Plant No. 28 Brassica oleracea
Experimental: as §1

Cucumis sativus = experiment: Foliage treatment (Example 8); settings: Plant No. 33 Cucumis sativus
Experimental: as §1

[1] = tested on: Eleucine indica var. carocana; experiment: Foliage treatment (Example 8); settings: Plant No. 24 Eleucine indica var. carocana
Experimental: as §1

Euphonia supina = experiment: Foliage treatment (Example 8); settings: Plant No. 36 Euphonia supina
Experimental: as §1

Glycine max = experiment: Foliage treatment (Example 8); settings: Plant No. 34 Glycine max
Experimental: as §1

Miscanthus sinensis = experiment: Foliage treatment (Example 8); settings: Plant No. 5 Miscanthus sinensis
Experimental: as §1

Oxalis corniculata = experiment: Foliage treatment (Example 8); settings: Plant No. 35 Oxalis corniculata
Experimental: as §1

Digitaria adscendens = experiment: Foliage treatment (Example 8); settings: Plant No. 10 Digitaria adscendens
Experimental: (§2) Aqueous solutions of Phosalacine (Na salt) at different concentrations were applied at a rate of 1500 liters per hectare to naturally occurring plants or plants which were cultured on plates as shown in the following Table at certain stages of growth. […] One month after the foliage treatment, the inhibition of regrowth of the plants was visually investigated.

Raphanus sativus = experiment: Foliage treatment (Example 8); settings: Plant No. 32 Raphanus sativus
Experimental: as §2

Castanea crenata = experiment: Foliage treatment of naturally growing weeds and brush (Example 9); settings: Plant No. 8 Castanea crenata, One month
From the text: (§3) Aqueous solutions of Phosalacine (Na salt) at different concentrations and 0.1% of octylphenylpolyoxy ethanol as surfactant were applied to the area where various weeds and brush were naturally growing at a rate of 1500 liter per hectare. One month after the foliage treatment, damage to weeds and brush was visually assessed on a scale of from 0 to 5 where 0 indicates no effect and 5 indicates complete kill as hereinbefore defined.

Pteridium aquilinum = experiment: as above; settings: Plant No. 20 Pteridium aquilinum, One month
From the text: as §3

Rubus palmatus = experiment: as above; settings: Plant No. 18 Rubus palmatus, One month
From the text: as §3

Smilax china = experiment: as above; settings: Plant No. 17 Smilax china, One month
From the text: as §3

Viburnum dilatatum = experiment: as above; settings: Plant No. 21 Viburnum dilatatum, One month
From the text: as §3

Zanthoxylum piperitum = experiment: as above; settings: Plant No. 19 Zanthoxylum piperitum, One month
From the text: as §3

[2] = tested on: various weeds and brush (overall evaluation); experiment: as above; settings: OE overall evaluation, One month
From the text: as §3

C[C@H](NC(=O)[C@H](C)NC(=O)[C@@H](N)CCP(C)(=O)[O-])C(=O)O.[Na+] [SF, reference compound]
2: damage to weeds and brush, scale 0 to 5 (Castanea crenata; 0.05%) | damage to weeds and brush, scale 0 to 5 (Pteridium aquilinum; 0.05%) | damage to weeds and brush, scale 0 to 5 (Rubus palmatus; 0.05%) | damage to weeds and brush, scale 0 to 5 (Smilax china; 0.05%) | damage to weeds and brush, scale 0 to 5 (Viburnum dilatatum; 0.05%) | damage to weeds and brush, scale 0 to 5 (Zanthoxylum piperitum; 0.05%) | damage to weeds and brush, scale 0 to 5 ([2]; 0.05%)
5: damage to the plants, scale 0 to 5 (Allium fistulosum; 0.2%, 7 days) | damage to the plants, scale 0 to 5 (Allium fistulosum; 0.2%, 14 days) | damage to the plants, scale 0 to 5 (Arctium lappa; 0.2%) | damage to the plants, scale 0 to 5 (Artemisia princeps; 0.2%, 14 days) | damage to the plants, scale 0 to 5 (Brassica oleracea; 0.2%, 14 days) | damage to the plants, scale 0 to 5 (Cucumis sativus; 0.2%, 14 days) | damage to the plants, scale 0 to 5 ([1]; 0.2%, 14 days) | damage to the plants, scale 0 to 5 (Euphonia supina; 0.2%, 14 days) | damage to the plants, scale 0 to 5 (Glycine max; 0.2%, 14 days) | damage to the plants, scale 0 to 5 (Miscanthus sinensis; 0.2%, 14 days) | damage to the plants, scale 0 to 5 (Oxalis corniculata; 0.2%, 14 days) | damage to the plants, scale 0 to 5 (Digitaria adscendens; 0.2%, 7 days) | damage to the plants, scale 0 to 5 (Digitaria adscendens; 0.2%, 14 days) | damage to the plants, scale 0 to 5 (Raphanus sativus; 0.2%, 14 days) | damage to weeds and brush, scale 0 to 5 (Castanea crenata; 0.2%) | damage to weeds and brush, scale 0 to 5 (Pteridium aquilinum; 0.2%) | damage to weeds and brush, scale 0 to 5 (Rubus palmatus; 0.2%) | damage to weeds and brush, scale 0 to 5 (Smilax china; 0.2%) | damage to weeds and brush, scale 0 to 5 (Viburnum dilatatum; 0.2%) | damage to weeds and brush, scale 0 to 5 (Zanthoxylum piperitum; 0.2%) | damage to weeds and brush, scale 0 to 5 ([2]; 0.2%)
3: damage to the plants, scale 0 to 5 (Allium fistulosum; 0.1%, 7 days) | damage to the plants, scale 0 to 5 (Artemisia princeps; 0.1%, 7 days) | damage to the plants, scale 0 to 5 (Brassica oleracea; 0.1%, 7 days) | damage to the plants, scale 0 to 5 (Cucumis sativus; 0.1%, 7 days) | damage to the plants, scale 0 to 5 ([1]; 0.1%, 7 days) | damage to the plants, scale 0 to 5 (Euphonia supina; 0.1%, 7 days) | damage to the plants, scale 0 to 5 (Glycine max; 0.1%, 7 days) | damage to the plants, scale 0 to 5 (Miscanthus sinensis; 0.1%, 7 days) | damage to the plants, scale 0 to 5 (Oxalis corniculata; 0.1%, 7 days) | damage to the plants, scale 0 to 5 (Digitaria adscendens; 0.1%, 7 days) | damage to the plants, scale 0 to 5 (Raphanus sativus; 0.1%, 7 days)
4: damage to the plants, scale 0 to 5 (Allium fistulosum; 0.1%, 14 days) | damage to the plants, scale 0 to 5 (Arctium lappa; 0.1%) | damage to the plants, scale 0 to 5 (Artemisia princeps; 0.1%, 14 days) | damage to the plants, scale 0 to 5 (Artemisia princeps; 0.2%, 7 days) | damage to the plants, scale 0 to 5 (Brassica oleracea; 0.1%, 14 days) | damage to the plants, scale 0 to 5 (Brassica oleracea; 0.2%, 7 days) | damage to the plants, scale 0 to 5 (Cucumis sativus; 0.1%, 14 days) | damage to the plants, scale 0 to 5 (Cucumis sativus; 0.2%, 7 days) | damage to the plants, scale 0 to 5 ([1]; 0.1%, 14 days) | damage to the plants, scale 0 to 5 ([1]; 0.2%, 7 days) | damage to the plants, scale 0 to 5 (Euphonia supina; 0.1%, 14 days) | damage to the plants, scale 0 to 5 (Euphonia supina; 0.2%, 7 days) | damage to the plants, scale 0 to 5 (Glycine max; 0.1%, 14 days) | damage to the plants, scale 0 to 5 (Glycine max; 0.2%, 7 days) | damage to the plants, scale 0 to 5 (Miscanthus sinensis; 0.1%, 14 days) | damage to the plants, scale 0 to 5 (Miscanthus sinensis; 0.2%, 7 days) | damage to the plants, scale 0 to 5 (Oxalis corniculata; 0.1%, 14 days) | damage to the plants, scale 0 to 5 (Oxalis corniculata; 0.2%, 7 days) | damage to the plants, scale 0 to 5 (Digitaria adscendens; 0.1%, 14 days) | damage to the plants, scale 0 to 5 (Raphanus sativus; 0.1%, 14 days) | damage to the plants, scale 0 to 5 (Raphanus sativus; 0.2%, 7 days) | damage to weeds and brush, scale 0 to 5 (Castanea crenata; 0.1%) | damage to weeds and brush, scale 0 to 5 (Pteridium aquilinum; 0.1%) | damage to weeds and brush, scale 0 to 5 (Rubus palmatus; 0.1%) | damage to weeds and brush, scale 0 to 5 (Smilax china; 0.1%) | damage to weeds and brush, scale 0 to 5 (Viburnum dilatatum; 0.1%) | damage to weeds and brush, scale 0 to 5 (Zanthoxylum piperitum; 0.1%) | damage to weeds and brush, scale 0 to 5 ([2]; 0.1%)
